Source: patent publication US6894053B2, “Serotonergic agents with long-acting in vivo effects” (Wyeth, priority 2001, dated 2005)
Counter-ions that a name gives are not always drawn.

Experiments:
5-HT1A [1] = target: T1, 5-HT1A (Rattus norvegicus, UniProt P19327); assay: Fixed Responding Model (fixed-ratio 30 food schedule), antagonism of 8-OH-DPAT; type: in vivo
T1 construct: from tissue; host or cells: rat brain (cortex and hippocampus membranes in the ex vivo assay; whole animal in the behavioural model)
T1 sequence (P19327 1-422): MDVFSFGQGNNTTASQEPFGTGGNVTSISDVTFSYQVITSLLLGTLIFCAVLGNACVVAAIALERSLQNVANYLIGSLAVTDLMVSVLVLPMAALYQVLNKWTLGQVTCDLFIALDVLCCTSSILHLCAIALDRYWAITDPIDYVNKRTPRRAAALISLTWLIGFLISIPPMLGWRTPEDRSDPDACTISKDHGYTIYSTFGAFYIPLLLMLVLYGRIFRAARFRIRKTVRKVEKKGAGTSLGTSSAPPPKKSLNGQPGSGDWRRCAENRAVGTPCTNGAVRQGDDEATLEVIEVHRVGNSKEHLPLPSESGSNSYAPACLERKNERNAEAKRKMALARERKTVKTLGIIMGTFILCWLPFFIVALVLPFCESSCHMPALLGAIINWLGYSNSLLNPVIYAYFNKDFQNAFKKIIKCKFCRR
Protocol: The ability of the compounds of this invention to function in vivo as 5-HT1A antagonists was assessed in rats using a Fixed Responding Model (Blackman, D., in, “Operant Conditioning: An Experimental Analysis of Behavior”, J. Butcher, Ed., Methuen and Co., Ltd., London). In this model rats are trained to respond (lever pressing) under a fixed-ratio 30 schedule of food presentation in order to receive a food pellet reinforcer. […] 5-HT1A antagonist activity is assessed by determining the test compound's ability to antagonize this decrease in response rate induced by administration of the agonist.

5-HT1A [2] = target: T1, 5-HT1A; assay: Ex vivo binding of [3H]-WAY-100635: 5-HT1A receptor occupancy in rat brain; details: for [3H]-WAY-100635 remaining in membrane preparation: 3 mg/kg ip
Protocol: The serotonergic 5-HT1A receptor occupancy in vivo of the compounds of this invention was determined using ex vivo binding techniques. Rats were injected with a 3 mg/kg ip dose of Example 1 or vehicle and then sacrificed after 1, 24, 72, 168, and 336 hours. […] Tissue was prepared by homogenization and washed once with buffer. Serotonergic 5-HT1A receptors were measured in the membrane preparation using the standard 5-HT1A receptor antagonist [^3H]-WAY-100635 (85 Ci/mmol). Specific binding was determined in the presence of […] methiothepin. The ability of the test compounds to displace [^3H]-WAY-100635 from the 5-HT1A receptor was then determined and expressed as the fmol/mg protein of [^3H]-WAY-100635 remaining in the membrane preparation after treatment with the test compound.

With `COc1ccccc1N1CCN(C[C@@H](CC2CCCCC2)NC(=O)C2(C)CCCCC2)CC1` (as salt: hydrochloride) (hydrate or solvate) [Example 1, 1-Methyl-cyclohexanecarboxylic acid {(1R)-1-cyclohexylmethyl-2-[4-(2-methoxyphenyl)-piperazin-1-yl]-ethyl}-amide hydrochloride hydrate] as the compound, how does the melting point read?
Its melting point is 119 to 121 °C.

Which “Reversal of the effect of 8-OH-DPAT on response rate” value (5-HT1A [1]; 3 mg/kg sc vs 8-OH-DPAT 1 mg/kg sc) does the source give for `COc1ccccc1N1CCN(C[C@@H](CC2CCCCC2)NC(=O)C2(C)CCCCC2)CC1` [Example 1, 1-Methyl-cyclohexanecarboxylic acid {(1R)-1-cyclohexylmethyl-2-[4-(2-methoxyphenyl)-piperazin-1-yl]-ethyl}-amide hydrochloride hydrate] here?
The value was “completely reverses”.

And the “Response Rate” value (5-HT1A [1]; 8-OH-DPAT (1 mg/kg sc) + test compound 3 mg/kg sc)?
The value was 2.4 ± 0.3 responses/second.

And the “Duration of significant inhibition of the 8-OH-DPAT-induced decrease in responding” value (5-HT1A [1]; single dose 3 mg/kg sc, daily 8-OH-DPAT 1 mg/kg sc)?
Its value is “up to 17 days”.

What about the “Response Rate” value (5-HT1A [1]; single dose 3 mg/kg sc, daily 8-OH-DPAT 1 mg/kg sc, Day 1) of the same compound?
The value was 2.4 ± 0.3 responses/second.

And the “Response Rate” value (5-HT1A [1]; single dose 3 mg/kg sc, daily 8-OH-DPAT 1 mg/kg sc, Day 4)?
Its value is 2.1 ± 0.3 responses/second.

And the “Response Rate” value (5-HT1A [1]; single dose 3 mg/kg sc, daily 8-OH-DPAT 1 mg/kg sc, Day 7)?
The value was 2.0 ± 0.3 responses/second.

And the “Response Rate” value (5-HT1A [1]; single dose 3 mg/kg sc, daily 8-OH-DPAT 1 mg/kg sc, Day 11)?
The value was 1.8 ± 0.2 responses/second.

What about the “Response Rate” value (5-HT1A [1]; single dose 3 mg/kg sc, daily 8-OH-DPAT 1 mg/kg sc, Day 14) of the same compound?
Its value is 1.7 ± 0.3 responses/second.

What about the “Response Rate” value (5-HT1A [1]; single dose 3 mg/kg sc, daily 8-OH-DPAT 1 mg/kg sc, Day 17) of the same compound?
Its value is 1.0 ± 0.2 responses/second.

And the “Response Rate” value (5-HT1A [1]; single dose 3 mg/kg sc, daily 8-OH-DPAT 1 mg/kg sc, Day 21)?
Its value is 0.7 ± 0.2 responses/second.

And the “[3H]-WAY-100635 remaining in membrane preparation” value (shortened to “[3H]-WAY-100635 remaining”) (5-HT1A [2]; 1 hour, cortex)?
The value was 4.0 ± 0.1 fmol/mg protein.

What about the “[3H]-WAY-100635 remaining” value (5-HT1A [2]; 1 hour, striat.) of the same compound?
Its value is 6.0 ± 0.3 fmol/mg protein.

What about the “[3H]-WAY-100635 remaining” value (5-HT1A [2]; 24 hour, cortex) of the same compound?
Its value is 8.0 ± 0.6 fmol/mg protein.

What about the “[3H]-WAY-100635 remaining” value (5-HT1A [2]; 24 hour, striat.) of the same compound?
The value was 12.0 ± 2.7 fmol/mg protein.

And the “[3H]-WAY-100635 remaining” value (5-HT1A [2]; 72 hours, cortex)?
Its value is 9.0 ± 0.6 fmol/mg protein.

What about the “[3H]-WAY-100635 remaining” value (5-HT1A [2]; 72 hours, striat.) of the same compound?
Its value is 14.0 ± 2.3 fmol/mg protein.

And the “[3H]-WAY-100635 remaining” value (5-HT1A [2]; 7 days, cortex)?
Its value is 7.0 ± 0.3 fmol/mg protein.

And the “[3H]-WAY-100635 remaining” value (5-HT1A [2]; 7 days, striat.)?
The value was 15.0 ± 1.7 fmol/mg protein.

And the “[3H]-WAY-100635 remaining” value (5-HT1A [2]; 14 days, cortex)?
The value was 11.0 ± 0.3 fmol/mg protein.

What about the “[3H]-WAY-100635 remaining” value (5-HT1A [2]; 14 days, striat.) of the same compound?
Its value is 26.0 ± 0.6 fmol/mg protein.

What about the “Duration of significant inhibition of WAY-100635 binding after a single administration” value (5-HT1A [2]; single administration, ex vivo binding) of the same compound?
Its value is “up to 14 days”.
